Experiment: Release of diclofenac from the formulation, in vitro, Franz cell, rabbit plasma
Assay type: in vitro ADME
Description: The evaluation of the release kinetics of Diclofenac from the formulation was conducted with a Franz cell, comparing the release of the diclofenac contained in the formulation described in example 1 with an identically formulated composition containing diclofenac sodium (DCFNa) instead of diclofenac acid, at the same percentage.
The Franz cell is an instrument known to the skilled person; briefly, and very simply, it consists of two chambers, the lower one being called the receptor, while the upper one is called the donor. The two cells are separated by a porous membrane and connected to one another; the medium in which the diffusion of the active ingredient in question will be evaluated is loaded into the receptor chamber, and the product to be evaluated is loaded into the donor chamber. The medium flows against the separator membrane, and therefore comes into contact with the product loaded into the donor chamber; the active constituent spreads through the membrane to the receptor chamber, from which aliquots are sampled for testing to determine the extent of release of the active ingredient.
In this specific case, the receptor chamber was loaded with rabbit plasma (10.2 ml); approx. 73 mg of the formulation of Example 1 based on diclofenac acid (DCF/H+), accurately weighed, was placed in the donor chamber, distributed on a cellulose acetate membrane with a porosity (cut-off) of 0.2μ, wetted with rabbit plasma, and an area of 3.46 cm2. When the operating procedures of the Franz cell had been activated, 0.3 ml samples of rabbit serum were taken from the receptor chamber, which was topped up with fresh serum from time to time. The diclofenac is determined by spectrophotometric analysis, calibrating the instrument with rabbit plasma to take account of the effect of the medium on the release of the medicament.
The same procedure was followed to measure the release of diclofenac sodium (DCF/Na) formulated identically to the formulation of Example 1 in qualitative and quantitative terms.

Row | SMILES | duration of release (formulation of Example 1) | drug released after approx. 8 hours (formulation of Example 1, approx. 8 hours) | time within which the drug is exhausted (formulated identically to Example 1 (0.8%)) | medicament released in the first 4 hours (formulated identically to Example 1 (0.8%), first 4 hours)
1 | O=C(O)Cc1ccccc1Nc1c(Cl)cccc1Cl [diclofenac acid] | at least 48 hours | 60% |  | 
2 | O=C(O)Cc1ccccc1Nc1c(Cl)cccc1Cl [diclofenac sodium] |  |  | ≤ 24 h | over 90%

— patent US8992890B2, “Absorbent dressings with painkilling activity” (Fidia Farmaceutici S.p.A., priority 2011, dated 2015)
